# Reference: patent publication KR20180060184A, “Ccsp-2와 특이적으로 결합하는 펩타이드 및 이의 용도” (재단법인 아산사회복지재단, priority 2016, dated 2018)
# Residues, ends and D or L forms follow the SMILES beside them.
# Biological target: T1, CCSP-2 단백질 (Homo sapiens, UniProt Q5GFL6)
# T1 sequence (Q5GFL6 24-755): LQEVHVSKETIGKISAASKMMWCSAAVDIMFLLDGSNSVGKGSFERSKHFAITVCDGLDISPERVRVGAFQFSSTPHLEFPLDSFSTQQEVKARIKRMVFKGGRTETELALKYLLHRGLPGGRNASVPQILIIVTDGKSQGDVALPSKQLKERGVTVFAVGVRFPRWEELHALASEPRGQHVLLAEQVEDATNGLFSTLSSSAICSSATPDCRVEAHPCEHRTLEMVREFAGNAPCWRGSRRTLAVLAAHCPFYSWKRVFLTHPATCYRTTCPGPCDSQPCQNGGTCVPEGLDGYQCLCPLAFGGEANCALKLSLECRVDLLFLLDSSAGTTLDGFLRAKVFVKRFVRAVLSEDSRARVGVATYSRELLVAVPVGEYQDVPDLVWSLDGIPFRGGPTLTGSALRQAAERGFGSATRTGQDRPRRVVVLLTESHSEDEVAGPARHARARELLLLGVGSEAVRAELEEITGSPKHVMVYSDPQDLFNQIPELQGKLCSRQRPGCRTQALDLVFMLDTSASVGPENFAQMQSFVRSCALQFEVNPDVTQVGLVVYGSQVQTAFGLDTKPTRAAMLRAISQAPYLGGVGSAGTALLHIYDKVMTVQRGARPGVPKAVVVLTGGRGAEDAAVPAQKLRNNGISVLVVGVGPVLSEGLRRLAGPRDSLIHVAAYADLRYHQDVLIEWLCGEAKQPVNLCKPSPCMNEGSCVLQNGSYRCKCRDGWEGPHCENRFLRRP
# Experiment: Fluorescence correlation spectroscopy (FCS), dissociation constant with CCSP-2 protein
# Assay type: binding
# Details: (peptide)-(GGGSK)-FITC-NH2 conjugate; CCSP-2 0-300 uM; Fig. 5; read-out: 해리상수 (Dissociation constant, Kd)
row,Kd [µM],Compound
1,55,"N=C(N)NCCC[C@H](NC(=O)[C@H](Cc1ccccc1)NC(=O)[C@H](CCCCN)NC(=O)[C@H](CO)NC(=O)[C@H](Cc1ccccc1)NC(=O)[C@@H](N)CCC(=O)O)C(=O)N[C@@H](CO)C(=O)O [MSJ2, EFSKFRS] (H-EFSKFRS-OH)"
2,25,"CSCC[C@H](N)C(=O)N[C@@H](CO)C(=O)N[C@H](C(=O)NCC(=O)N[C@@H](CC(C)C)C(=O)N[C@@H](CO)C(=O)N[C@@H](CO)C(=O)O)[C@@H](C)O [MSJ3, MSTGLSS] (H-MSTGLSS-OH)"
3,62,"CC(C)C[C@H](NC(=O)[C@H](CCCCN)NC(=O)[C@@H](N)CC(C)C)C(=O)NCC(=O)N[C@@H](CCC(=O)O)C(=O)N[C@@H](CCCCN)C(=O)N[C@@H](Cc1c[nH]c2ccccc12)C(=O)O [MSJ6, LKLGEKW] (H-LKLGEKW-OH)"
4,61,"N=C(N)NCCC[C@H](NC(=O)[C@H](CC(N)=O)NC(=O)[C@H](Cc1ccccc1)NC(=O)[C@H](CO)NC(=O)[C@H](CO)NC(=O)[C@H](Cc1ccc(O)cc1)NC(=O)CN)C(=O)O [MSJ11, GYSSFNR] (H-GYSSFNR-OH)"

# Biological target: T2, CCSP-2 (Homo sapiens, UniProt Q5GFL6)
# T2 construct: His tag; made in house; host or cells: CCSP-2-overexpressing HeLa cell line (provided by Case Western Reserve University); the secreted protein was captured from the conditioned medium on Ni-NTA agarose
# T2 sequence (Q5GFL6 24-755): T1 sequence (Q5GFL6 24-755)
# Experiment: Phage display biopanning on purified CCSP-2 and sequencing of selected clones
# Assay type: binding
# Details: after 4 rounds of panning on CCSP-2
row,"빈도 (frequency among the 56 sequences, percent) [%]",Compound
1,16.1,NTGSPYE [MSJ1]
2,12.5,WWNPLRP [MSJ10]
